In one assay the test system is AKT protein phosphorylated on serine 473 (P-AKT-S473) in PC3 human prostate carcinoma cells. As to the kind of experiment: pAKT expression in PC3 human prostate carcinoma cells, MSD Multi-spot Biomarker detection (Test A). The assay is classed as cell-based. The conditions noted are these: Homo sapiens, PC-3. Here is the method:
The inhibitory activity of the molecules on AKT phosphorylation is measured using the MSD Multi-spot Biomarker detection technique from Meso Scale Discovery also described below. […] The primary antibody specific for […]) is coated on to an electrode in each well of the 96-well plates of the MSD kit: after the addition of a protein lysate to each well, the signal is visualized by adding a secondary detection antibody labeled with an electrochemiluminescent compound. The procedure followed is the one described in the kit. […] On day 2, the cells are incubated in the presence or absence of the test products for 1 to 2 h at 37° C. in the presence of 5% CO2. The molecules, diluted in dimethyl sulfoxide (DMSO Sigma #D2650), are added from a 20-times concentrated stock solution, the final percentage of DMSO being 0.1%. The molecules are tested either at a single concentration of less than or equal to 10 μM, or at increasing concentrations in a range that can extend from less than 1 nM to 10 μM. After this incubation, the cells are lysed for the preparation of the proteins. […] At this stage, the plates containing the lysates can be frozen at -20° C. or at -80° C. The wells of the 96 well plates of the MSD kit are saturated for 1 h at ambient temperature with the blocking solution of the MSD kit. Four washes are carried out with 150 μl of Tris Wash Buffer of the MSD kit. The lysates previously prepared are transferred into the 96-well multi-spot plates of the MSD kit and incubated for 1 h at ambient temperature, with shaking. Four washes are carried out with 150 μl of Tris Wash Buffer of the MSD kit. 25 μl of the MSD sulfo-tag detection antibody solution are added to the wells and incubated for 1 h at ambient temperature, with shaking. Four washes are carried out with 150 μl of Tris Wash Buffer of the MSD kit. 150 μl of Read Buffer of the MSD kit are added to the wells and the plates are read immediately on the S12400 instrument from Meso Scale Discovery. The instrument measures a signal for each well. Wells without cells and containing the lysis buffer serve to determine the background noise that will be subtracted from all the measurements (min). The wells containing cells in the absence of product and in the presence of 0.1% DMSO are considered to be the 100% signal (max). The percentage inhibition is calculated for each concentration of product tested, according to the following formula: (1-((test-min)/(max-min)))×100. […] Two independent experiments make it possible to calculate the mean of the IC50 values.
As for `Cn1c(CC(=O)Nc2ccc(F)c(Cl)c2)nc(N2CCOC(CF)C2)cc1=O` (single isomer, unassigned; (+)) [Example 5b, (+)-N-(3-chloro-4-fluorophenyl)-2-[4-(2-fluoromethylmorpholin-4-yl)-1-methyl-6-oxo-1,6-dihydropyrimidin-2-yl]acetamide], the IC50 (in general, the concentration that gives 50% inhibition) came to 127 nM.

Staying with this assay, now noted: Homo sapiens, PC-3, PC3 cells, 1 to 2 h incubation, P-AKT-S473, absolute IC50, mean of two independent experiments.
With `CCC1CN(c2cc(=O)[nH]c(CC(=O)Nc3ccc(F)cc3)n2)CCO1` (racemic) [Example 14b, (±)-2-[4-(2-ethylmorpholin-4-yl)-6-oxo-1,6-dihydropyrimidin-2-yl]-N-(4-fluorophenyl)acetamide], half-maximal inhibition (IC50) was put at 280 nM. On the same count and under the same terms, to `O=C(Cc1nc(N2CCOC(CO)C2)cc(=O)[nH]1)N1CCc2c(F)cccc21` (racemic) [Example 27b, (±)-2-[2-(4-fluoro-2,3-dihydroindol-1-yl)-2-oxoethyl]-6-(2-hydroxymethylmorpholin-4-yl)-3H-pyrimidin-4-one] belongs 1330 nM; to `CCC1CN(c2cc(=O)[nH]c(CC(=O)Nc3ccc(F)cc3)n2)CCO1` (single isomer, unassigned; (+)) [Example 15b, (+)-2-[4-(2-Ethylmorpholin-4-yl)-6-oxo-1,6-dihydropyrimidin-2-yl]-N-(4-fluorophenyl)acetamide], 105 nM; to `CC1Cc2c(ccc(F)c2F)N1C(=O)Cc1nc(N2CCOCC2)cc(=O)n1C` (single isomer, unassigned; (+)) [Example 19c, (+)-2-{2-[4,5-difluoro-2-methyl-2,3-dihydro-1H-indol-1-yl]-2-oxoethyl}-3-methyl-6-(morpholin-4-yl)pyrimidin-4(3H)-one], 19 nM. Same read-out and setting: under `CC1CN(c2cc(=O)[nH]c(CC(=O)N3c4ccccc4C[C@@H]3C)n2)CCO1` (single isomer, unassigned; (+)) [Example 29b] stands 24 nM; under `C[C@H]1Cc2ccccc2N1C(=O)Cc1nc(N2CCOC(CO)C2)cc(=O)[nH]1` (single isomer, unassigned; (+)) [Example 31b], 156 nM.

Staying with this assay, now noted: PC3 cells, 1 to 2 h incubation, P-AKT-S473, absolute IC50, mean of two independent experiments.
Consider `CC1CN(c2cc(=O)[nH]c(CC(=O)Nc3ccc(F)cc3)n2)CCO1` (single isomer, unassigned; (+)) [Example 2b, (+)-N-(4-fluorophenyl)-2-[4-(2-methylmorpholin-4-yl)-6-oxo-1,6-dihydropyrimidin-2-yl]acetamide], for which the IC50 came to 6 nM. This counts as single-digit nanomolar. Compound `CC1Cc2c(Cl)cccc2N1C(=O)Cc1nc(N2CCOCC2)cc(=O)[nH]1` (single isomer, unassigned; (+)) [Example 2c, (+)-2-{2-[4-chloro-2-methyl-2,3-dihydro-1H-indol-1-yl]-2-oxoethyl}-6-(morpholin-4-yl)pyrimidin-4(3H)-one] came in with an IC50 of 5 nM.

Compound `O=C(Cc1nc(N2CCOC(CF)C2)cc(=O)[nH]1)Nc1ccc(F)cc1` (single isomer, unassigned; (+)) [Example 4b, (+)-N-(4-fluorophenyl)-2-[4-(2-fluoromethylmorpholin-4-yl)-6-oxo-1,6-dihydropyrimidin-2-yl]acetamide] showed an IC50 of 118 nM. Against the preceding compound, the IC50 is about 24-fold higher. `O=C(Cc1nc(N2CCOC(CF)C2)cc(=O)[nH]1)N1CCc2c(F)cccc21` (single isomer, unassigned; (+)) [Example 7b, (+)-2-[2-(4-fluoro-2,3-dihydroindol-1-yl)-2-oxoethyl]-6-(2-fluoromethylmorpholin-4-yl)-3H-pyrimidin-4-one]: the half-inhibitory concentration (IC50) was found to be 21 nM. Still for that read-out and setting: under `CC1Cc2c(O)cccc2N1C(=O)Cc1nc(N2CCOCC2)cc(=O)[nH]1` (single isomer, unassigned; (+)) [Example 9c, (+)-2-{2-[4-hydroxy-2-methyl-2,3-dihydro-1H-indol-1-yl]-2-oxoethyl}-6-(morpholin-4-yl)pyrimidin-4(3H)-one] stands 115 nM. Same read-out and setting: to `CC1CN(c2cc(=O)[nH]c(CC(=O)N3CCc4c(F)cccc43)n2)CCO1` (single isomer, unassigned; (+)) [Example 10b, (+)-2-[2-(4-fluoro-2,3-dihydroindol-1-yl)-2-oxoethyl]-6-(2-methylmorpholin-4-yl)-3H-pyrimidin-4-one] belongs 8 nM; to `CC1Cc2cc(F)ccc2N1C(=O)Cc1nc(N2CCOCC2)cc(=O)[nH]1` (single isomer, unassigned; (+)) [Example 13c, (+)-2-{2-[5-fluoro-2-methyl-2,3-dihydro-1H-indol-1-yl]-2-oxoethyl}-6-(morpholin-4-yl)pyrimidin-4(3H)-one], 5 nM. Still for that read-out and setting: under `CC1Cc2cc(F)ccc2N1C(=O)Cc1nc(N2CCOCC2)cc(=O)n1C` (single isomer, unassigned; (+)) [Example 15c, (+)-2-{2-[5-fluoro-2-methyl-2,3-dihydro-1H-indol-1-yl]-2-oxoethyl}-3-methyl-6-(morpholin-4-yl)pyrimidin-4(3H)-one] stands 28 nM; under `CC1Cc2c(Br)cccc2N1C(=O)Cc1nc(N2CCOCC2)c(F)c(=O)[nH]1` (single isomer, unassigned; (+)) [Example 16a, (+)-2-{2-[4-bromo-2-methyl-2,3-dihydro-1H-indol-1-yl]-2-oxoethyl}-5-fluoro-6-(morpholin-4-yl)pyrimidin-4(3H)-one], 483 nM; under `CC1Cc2c(ccc(F)c2F)N1C(=O)Cc1nc(N2CCOCC2)cc(=O)[nH]1` (single isomer, unassigned; (+)) [Example 17c, (+)-2-{2-[4,5-difluoro-2-methyl-2,3-dihydro-1H-indol-1-yl]-2-oxoethyl}-6-(morpholin-4-yl)pyrimidin-4(3H)-one], 4 nM. Take `CC1Cc2ccccc2N1C(=O)Cc1nc(N2CCOCC2)cc(=O)[nH]1` (single isomer, unassigned; (+)) [Example 21b, (+)-2-[2-(2-methyl-2,3-dihydroindol-1-yl)-2-oxoethyl]-6-morpholin(D8)-4-yl-3H-pyrimidin-4-one]: the IC50 is 27 nM. On the same count and under the same terms, under `O=C(Cc1nc(N2CCOCC2)cc(=O)[nH]1)N1c2ccccc2CC1c1ccccc1` (single isomer, unassigned; (+)) [Example 24d, (+)-6-(morpholin-4-yl)-2-{2-oxo-2-[2-phenyl-2,3-dihydro-1H-indol-1-yl]ethyl}pyrimidin-4(3H)-one] stands 205 nM; under `CC1Cc2c(Br)cccc2N1C(=O)Cc1nc(N2CCOCC2)cc(=O)[nH]1` (single isomer, unassigned; (+)) [Example 25c, (+)-2-{2-[4-bromo-2-methyl-2,3-dihydro-1H-indol-1-yl]-2-oxoethyl}-6-(morpholin-4-yl)pyrimidin-4(3H)-one], 39 nM; under `O=C(Cc1nc(N2CCOC(CO)C2)cc(=O)[nH]1)N1CCc2c(Cl)cccc21` (single isomer, unassigned; (+)) [Example 26b, (+)-2-[2-(4-Chloro-2,3-dihydroindol-1-yl)-2-oxoethyl]-6-(2-hydroxymethylmorpholin-4-yl)-3H-pyrimidin-4-one], 240 nM.

`CC1Cc2c(F)cccc2N1C(=O)Cc1nc(N2CCOCC2)cc(=O)[nH]1` (single isomer, unassigned; (+)) [Example 28c, (+)-2-{2-[4-fluoro-2-methyl-2,3-dihydro-1H-indol-1-yl]-2-oxoethyl}-6-(morpholin-4-yl)pyrimidin-4(3H)-one] had a 50% inhibitory concentration (IC50) of 98 nM. For the compound `CC1Cc2c(OC(F)F)cccc2N1C(=O)Cc1nc(N2CCOCC2)cc(=O)[nH]1` (single isomer, unassigned; (+)) [Example 29d, (+)-2-{2-[4-(difluoromethoxy)-2-methyl-2,3-dihydro-1H-indol-1-yl]-2-oxoethyl}-6-(morpholin-4-yl)pyrimidin-4(3H)-one], the IC50 is 33 nM. The compound `CC1Cc2c(F)cccc2N1C(=O)Cc1nc(N2CCOCC2)cc(=O)n1C` (single isomer, unassigned; (+)) [Example 30c, (+)-2-{2-[4-fluoro-2-methyl-2,3-dihydro-1H-indol-1-yl]-2-oxoethyl}-3-methyl-6-(morpholin-4-yl)pyrimidin-4(3H)-one] registered an IC50 of 73 nM.

Still in this assay, the particulars now being: PC3 cells, 1 to 2 h incubation, P-AKT-S473, absolute IC50, mean of two independent experiments; listed as 27.
`O=C(Cc1nc(N2CCOCC2)cc(=O)[nH]1)N1c2ccccc2CC1c1ccc(F)cc1` (single isomer, unassigned; (+)) [Example 27d, (+)-2-{2-[2-(4-fluorophenyl)-2,3-dihydro-1H-indol-1-yl]-2-oxoethyl}-6-(morpholin-4-yl)pyrimidin-4(3H)-one] showed an IC50 of 435 nM.

Source of the values: patent US9133168B2, “Pyrimidine derivatives, preparation thereof, and pharmaceutical use thereof as akt(pkb) phosphorylation inhibitors” (SANOFI, priority 2010, dated 2015).
